From patent publication US5081284A, “Proteinase inhibitor” (Suntory Limited, priority 1989, dated 1992)
Read-outs that look alike come from different tables or passages of the source. Peptide text beside a SMILES is read from it. * marks the point of attachment. Cbz = O=C(OCc1ccccc1)*

Experiments:
[1] = target: cathepsin B (Bos taurus, UniProt P07688); assay: Anti-cathepsin activity (cathepsin B, benzyloxycarbonyl-L-lysine-p-nitrophenyl ester substrate); type: biochemical, bovine; conditions: Table 8 (Example 29); pH 5.1, 30° C., from bovine spleen; read-out: Inhibitory activity toward cathepsin B, IC50
Method: A mixture of a test compound of the present invention and an acetate buffer solution (25 mM, pH=5.1, with 1 mM EDTA, 3.15 ml) containing a substrate (benzyloxycarbonyl-L-lysine-p-nitrophenyl ester, 0.114 mg) was preincubated at 30° C. for 1 minute. To the mixture, a solution (0.05 ml) of cathepsin B (derived from bovine spleen; product of Sigma; 0.05 units) in the acetate buffer was added to start the reaction. Immediately after the start of reaction, the change in absorbance at 326 nm was measured and the inhibitory activity of the test compound was determined by comparison with the control solution.

[2] = target: T1, calpain I (Homo sapiens, UniProt P07384); assay: Anti-calpain activity, calpain I (casein hydrolysis, Ross-Schatz method); type: biochemical
T1 sequence (P07384 1-714): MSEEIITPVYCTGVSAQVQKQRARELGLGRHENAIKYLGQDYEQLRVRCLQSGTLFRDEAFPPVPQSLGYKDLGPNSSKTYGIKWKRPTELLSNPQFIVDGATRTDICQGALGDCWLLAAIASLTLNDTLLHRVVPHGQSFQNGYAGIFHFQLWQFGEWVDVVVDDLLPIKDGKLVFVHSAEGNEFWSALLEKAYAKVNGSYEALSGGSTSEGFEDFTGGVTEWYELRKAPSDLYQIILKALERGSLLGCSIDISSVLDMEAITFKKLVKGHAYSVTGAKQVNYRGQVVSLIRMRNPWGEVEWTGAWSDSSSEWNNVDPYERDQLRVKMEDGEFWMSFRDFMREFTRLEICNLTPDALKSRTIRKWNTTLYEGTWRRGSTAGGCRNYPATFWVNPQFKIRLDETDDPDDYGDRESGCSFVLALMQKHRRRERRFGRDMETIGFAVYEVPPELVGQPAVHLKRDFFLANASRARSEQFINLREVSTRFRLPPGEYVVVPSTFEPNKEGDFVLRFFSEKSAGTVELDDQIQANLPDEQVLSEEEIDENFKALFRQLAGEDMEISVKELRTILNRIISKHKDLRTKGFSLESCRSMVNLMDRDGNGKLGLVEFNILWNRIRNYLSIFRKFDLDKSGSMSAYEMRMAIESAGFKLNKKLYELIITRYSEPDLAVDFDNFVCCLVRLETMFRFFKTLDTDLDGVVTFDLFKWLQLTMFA
T1 sequence (P04632 1-268 partner): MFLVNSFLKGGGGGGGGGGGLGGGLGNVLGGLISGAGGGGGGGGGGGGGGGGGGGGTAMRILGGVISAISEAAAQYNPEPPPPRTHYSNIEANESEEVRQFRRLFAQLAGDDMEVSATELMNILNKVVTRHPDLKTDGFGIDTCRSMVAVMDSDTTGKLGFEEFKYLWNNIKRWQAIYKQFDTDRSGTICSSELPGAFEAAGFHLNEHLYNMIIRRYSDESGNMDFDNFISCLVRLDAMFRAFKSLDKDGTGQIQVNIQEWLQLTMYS

[3] = target: T2, papain (Carica papaya, UniProt P00784); assay: Anti-papain activity (casein hydrolysis, Lowry-Folin method); type: biochemical
T2 sequence (P00784 134-345): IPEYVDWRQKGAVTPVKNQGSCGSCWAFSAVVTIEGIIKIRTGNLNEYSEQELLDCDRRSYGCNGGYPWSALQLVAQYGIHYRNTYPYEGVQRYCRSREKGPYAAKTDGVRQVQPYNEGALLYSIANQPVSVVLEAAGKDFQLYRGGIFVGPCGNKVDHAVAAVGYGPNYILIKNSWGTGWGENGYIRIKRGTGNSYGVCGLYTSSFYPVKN
Method: (§1) A mixture of a test compound of the present invention, papain (0.015 units) and a citrate buffer solution (20 mM, pH=6.2,1 ml) containing EDTA (0.88 mg) was preincubated at 30° C. for 5 minutes and a substrate solution (1 ml) was added to start the reaction. The substrate was a 1% solution of casein in the citrate buffer. The reaction was performed at 30° C. for 20 minutes. The reaction was quenched by adding 6.5% trichloroacetic acid (3 ml) to the reaction solution. The amount of casein that had been hydrolyzed enzymatically in the trichloroacetic acid soluble fraction was measured by the Lowry-Folin method and the inhibitory activity of the test compound was determined by comparison with the control solution.
as §1, with “pH=6.2, 1” for “pH=6.2,1”

[4] = target: T3, calpain II (Homo sapiens, UniProt P17655); assay: Anti-calpain activity, calpain II (casein hydrolysis, Ross-Schatz method); type: biochemical
T3 sequence (P17655 1-700): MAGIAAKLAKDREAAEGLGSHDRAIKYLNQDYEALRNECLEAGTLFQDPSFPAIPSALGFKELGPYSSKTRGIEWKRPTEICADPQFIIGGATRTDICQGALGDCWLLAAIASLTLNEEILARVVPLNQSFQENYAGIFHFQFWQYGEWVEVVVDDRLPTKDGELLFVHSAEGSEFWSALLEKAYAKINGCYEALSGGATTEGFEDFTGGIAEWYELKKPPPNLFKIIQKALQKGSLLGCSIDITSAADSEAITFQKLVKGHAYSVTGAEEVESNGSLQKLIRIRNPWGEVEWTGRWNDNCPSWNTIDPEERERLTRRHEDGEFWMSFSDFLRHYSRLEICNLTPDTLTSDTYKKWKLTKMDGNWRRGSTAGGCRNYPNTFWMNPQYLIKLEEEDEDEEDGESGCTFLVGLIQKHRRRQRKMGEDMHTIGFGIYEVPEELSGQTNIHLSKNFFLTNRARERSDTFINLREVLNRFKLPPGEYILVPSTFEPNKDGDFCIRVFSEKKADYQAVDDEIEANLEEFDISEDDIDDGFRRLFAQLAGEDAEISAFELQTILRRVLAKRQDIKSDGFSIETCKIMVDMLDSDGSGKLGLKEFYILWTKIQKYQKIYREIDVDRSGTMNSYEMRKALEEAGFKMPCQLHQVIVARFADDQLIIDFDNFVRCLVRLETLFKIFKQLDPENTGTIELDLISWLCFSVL
T3 sequence (P04632 1-268 partner): T1 sequence (P04632 1-268 partner)

[5] = Table 6 (Example 29), pH 7.5, 30° C., 30 minutes, casein, read-out: Inhibitory activity toward calpain I, IC50
[6] = Table 5 (Example 29), pH 6.2, 30° C., 20 minutes, casein, read-out: Inhibitory activity toward papain, IC50
[7] = Table 7 (Example 29), pH 7.5, 30° C., 30 minutes, casein, read-out: Inhibitory activity toward calpain II, IC50
[8] = Table 4 (Example 28), pH 7.5, 30° C., 30 minutes, casein, read-out: Inhibitory activity toward calpain II, IC50
[9] = Table 3 (Example 28), pH 7.5, 30° C., 30 minutes, casein, read-out: Inhibitory activity toward calpain I, IC50
[10] = Table 2 (Example 28), pH 6.2, 30° C., 20 minutes, casein, read-out: Inhibitory activity toward papain, IC50

| Compound | IC50 [1] [nM] | IC50 [2, 5] [nM] | IC50 [4, 8] [nM] | further results |
| --- | --- | --- | --- | --- |
| CCCCCCCC(=O)N[C@@H](CC(C)C)C(=O)N[C@H](C=O)CCCC [Example 1, N-caprylyl-L-leucyl-L-norleucinal] | 110 | 160 |  |  |
| CCCCCC(=O)N[C@@H](CC(C)C)C(=O)N[C@H](C=O)CCCC [Example 2, N-caproyl-L-leucyl-L-norleucinal] | 9200 |  |  |  |
| CCCC[C@@H](C=O)NC(=O)[C@H](CC(C)C)NC(=O)CC(C)C [Example 3, N-isovaleryl-L-leucyl-L-norleucinal] | 510 | 100 |  | IC50 [3, 6]: 120 nM; IC50 [4, 7]: 130 nM |
| CCCC[C@@H](C=O)NC(=O)[C@H](CC(C)C)NC(=O)OC(C)(C)C [Example 4, N-(t-butyloxycarbonyl)-L-leucyl-L-norleucinal] | 58 | 30 |  | IC50 [4, 7]: 120 nM |
| CCCC[C@@H](C=O)NC(=O)[C@H](CC(C)C)NC(=O)OC12CC3CC(CC(C3)C1)C2 [Example 5, N-adamantyloxycarbonyl-L-leucyl-L-norleucinal] | 180 | 150 |  | IC50 [3]: 210 nM |
| CCCC[C@@H](C=O)NC(=O)[C@H](CC(C)C)NC(=O)OCc1ccc(Cl)cc1 [Example 6, N-(p-chlorobenzyloxycarbonyl)-L-leucyl-L-norleucinal] | 70 | 87 |  | IC50 [3, 6]: 58 nM; IC50 [4, 7]: 130 nM |
| CCCC[C@@H](C=O)NC(=O)[C@H](CC(C)C)NC(=O)OCC(Cl)(Cl)Cl [Example 10, N-(2,2,2-trichloroethyloxycarbonyl)-L-leucyl-L-norleucinal] | 330 | 96 |  | IC50 [3, 6]: 260 nM |
| CCCC[C@@H](C=O)NC(=O)[C@H](CC(C)C)NC(=O)OCC[Si](C)(C)C [Example 11, N-(2-trimethylsilylethyloxycarbonyl)-L-leucyl-L-norleucinal] | 960 |  |  |  |
| CCCC[C@@H](C=O)NC(=O)[C@H](CC(C)C)NS(=O)(=O)c1ccc(C)cc1 [Example 12, N-(p-toluenesulfonyl)-L-leucyl-L-norleucinal] | 1200 | 110 |  | IC50 [3, 6]: 180 nM |
| CCCC[C@@H](C=O)NC(=O)[C@H](CC(C)C)NC(c1ccccc1)(c1ccccc1)c1ccccc1 [Example 15, N-triphenylmethyl-L-leucyl-L-norleucinal] | 32000 |  |  |  |
| CCCC[C@@H](C=O)NC(=O)[C@H](CC(C)C)NC(C)=CC(=O)c1ccccc1 [Example 16, N-(2-benzoyl-1-methylvinyl)-L-leucyl-L-norleucinal] | 7000 | 400 |  | IC50 [3, 6]: 96 nM |
| CCCC[C@@H](C=O)NC(=O)[C@H](CC(C)C)N1C(=O)c2ccccc2C1=O [Example 17, N-phthaloyl-L-leucyl-L-norleucinal] | 100000 |  |  |  |
| CCCC[C@@H](C=O)NC(=O)[C@H](CCCC)NC(=O)OCc1ccccc1 [Example 18, N-benzyloxycarbonyl-L-norleucyl-L-norleucinal] | 110 | 700 |  |  |
| CC(C)C[C@H](NC(=O)OCc1ccccc1)C(=O)N[C@H](C=O)Cc1ccccc1 [Example 19, N-benzyloxycarbonyl-L-leucyl-L-phenylalaninal] (Cbz-Leu-Phe-aldehyde) |  |  | 35 | IC50 [2, 9]: 100 nM |
| CCCC[C@@H](C=O)NC(=O)[C@H](CC(C)C)NC(=O)OCc1ccccc1 [Example 20, N-benzyloxycarbonyl-L-leucyl-L-norleucinal] |  | 710 | 34 | IC50 [3, 6]: 310 nM; IC50 [4, 7]: 130 nM; IC50 [2, 9]: 52 nM |
| CSCC[C@@H](C=O)NC(=O)[C@H](CC(C)C)NC(=O)OCc1ccccc1 [Example 21, N-benzyloxycarbonyl-L-leucyl-L-methioninal] (Cbz-Leu-Met-aldehyde) |  |  | 25 |  |
| CC(C)C[C@H](NC(=O)CCCc1ccccc1)C(=O)N[C@H](C=O)Cc1ccccc1 [Example 22, N-(4-phenyl)butanoyl-L-leucyl-L-phenylalaninal] |  |  | 29 | IC50 [3, 10]: 18 nM |
| CCCC[C@@H](C=O)NC(=O)[C@H](CC(C)C)NC(=O)CCCc1ccccc1 [Example 23, N-(4-phenylbutanoyl)-L-leucyl-L-norleucinal] |  |  | 320 | IC50 [3, 10]: 15 nM; IC50 [2, 9]: 40 nM |
| CSCC[C@@H](C=O)NC(=O)[C@H](CC(C)C)NC(=O)CCCc1ccccc1 [Example 24, N-(4-phenyl)butanoyl-L-leucyl-L-methioninal] |  |  | 71 | IC50 [3, 10]: 19 nM; IC50 [2, 9]: 38 nM |
| CCCC[C@H](NC(=O)[C@H](CC(C)C)NC(=O)OCc1ccccc1)C(=O)CCl [Example 26, N-benzyloxycarbonyl-L-leucine 1s-chloroacetyl-n-pentylamide] |  |  | 120 | IC50 [3, 10]: 12 nM; IC50 [2, 9]: 150 nM |
| CCCC[C@H](NC(=O)[C@H](CC(C)C)NC(=O)CCCc1ccccc1)C(=O)CCl [Example 27, N-(4-phenylbutanoyl)-L-leucyl-L-norleucyl chloromethyl] |  |  | 140 | IC50 [3, 10]: 25 nM; IC50 [2, 9]: 71 nM |
| CC(=O)N[C@@H](CC(C)C)C(=O)N[C@@H](CC(C)C)C(=O)N[C@H](C=O)CCCNC(=N)N [Leupeptin, reference compound] |  |  |  | IC50 [3, 10]: 53 nM; IC50 [4]: 940 nM; IC50 [2]: 210 nM |
